Experimental data as given in publication PMC10870435, “A novel complement C3 inhibitor CP40-KK protects against experimental pulmonary arterial hypertension via an inflammasome NLRP3 associated pathway” (Journal of Translational Medicine, 2024).

Assays:
[1] = system: RAW264.7 cells; test: RAW264.7 macrophages, western blot of NLRP3 pathway after C3a; type: cell-based; settings: n = 3 per group
Experimental: (§1) RAW264.7 cells were provided by the Hubei Key Laboratory of Genetics and Molecular Mechanism of Cardiologic Disorders, Huazhong University of Science and Technology (China), and cultured in DMEM containing 10% fetal bovine serum at 37 ℃ and 5% CO2. RAW264.7 cells were incubated with 50 nM C3a for 12 h and then were washed twice with PBS. The cells were incubated with serum-free DMEM for 12 h and the supernatants were collected. After pretreatment with 100 ng/ml of IL-1RA for 1 h, we added the supernatants from the control or C3a group to PASMCs respectively for 24 h.
Proteins were collected from the fresh frozen-rat lung tissues using RIPA lysis buffer. Protein concentration was quantified using a BCA reagent. Equal amounts of protein were electrophoretically separated on 10% SDS polyacrylamide gel, transferred to PVDF membranes, and probed with desired primary antibodies overnight at 4 °C. Membranes were then washed with TBST and incubated with anti-mouse IgG (1:5000) or anti-rabbit IgG (1:5000) horseradish peroxidase conjugated antibodies as indicated. Blots were developed with the enhanced chemiluminescence system. To compare and quantify levels of proteins, the density of each band was measured using Image J software. Equal loading for total cell or tissue lysates was determined by β-Actin western blot.

[2] = system: MCT-induced rat PAH model; test: MCT-induced rat PAH model: hemodynamics, RV hypertrophy, vessel morphology; type: in vivo; settings: single i.p. injection 40 mg/kg; control group 28.00 ± 3.55 mmHg; mean ± SEM; n = 6 per group; SEM
Experimental: In the current study, two animal experiments were conducted successively. 30 rats were randomly divided into two groups (control group and MCT group, n = 15 per group) in the first experiment. MCT group rats received a single intraperitoneally injection of MCT (40 mg/kg) on day 1 to induce PAH while control group rats received an equivoluminal saline injection intraperitoneally. For the second animal experiment, the rats were assigned into four groups (control group, MCT group, CP40-KK group, and MCT + CP40-KK group, n = 15 per group). The control group was given the same volume of saline subcutaneously while the CP40-KK group rats only received CP40-KK (2 mg/kg) by subcutaneous injection from day 15 to day 28 continuously. The rats in the MCT group and MCT + CP40-KK group were received a single intraperitoneally injection of MCT (40 mg/kg) on day 1 and subcutaneously injected with either an equal volume of saline or CP40-KK (2 mg/kg) at day 15 to day 28 continuously. The dose selection of MCT and CP40-KK in our study was established based on previous studies.
Four weeks after the MCT injection, the experimental rats were weighed and anesthetized by intraperitoneal injecting pentobarbital sodium (40 mg/kg). After being anesthetized, rats were fixed in the supine position. A 3F polyethylene catheter filling with heparin was introduced into the right ventricle (RV) through the right jugular vein and the right atrium. Right ventricle systolic pressure (RVSP) was assessed by a pressure transducer and PowerLab system (AD Instruments, Australia). Pressure recordings were measured over a 2 min period and analyzed with Powerlab Pro Software (AD Instruments, Australia). After the hemodynamic study, the rats were euthanized by an overdose of anesthesia, and their lungs and hearts were dissected for further evaluation. The dry weights of the RV and left ventricle (LV) + septum were measured to calculate the RV/(LV + S) ratio and the RV / body weight (RV/BW). The left lung was fixed in 4% paraformaldehyde, and the right lung was snap-frozen in liquid nitrogen and stored at − 80 °C for further analysis.
Fixed lung samples were further fixed in 4% buffered paraformaldehyde for 24 h, embedded in paraffin, and processed for sectioning at 5 μm thick. Hematoxylin and eosin (H&E) staining were performed on paraffin-fixed lung tissue slides. The percent medial wall thickness (WT%) and percent medial wall area (WA%) were used to assess the extent of pulmonary vascular remodeling. WT% = (external diameter − internal diameter)/(external diameter) × 100%; WA% = (external area − internal area)/external area × 100%. All data were obtained and analyzed in a blinded manner.

[3] = system: C3; settings: cited from earlier work
Excerpt: The selective C3 inhibitor CP40 has been found therapeutically effective in various diseases, but has yet not been tested in the PAH model. In the current study, we applied the newly identified CP40 analog, CP40-KK, with two more lysine attached to the C terminus, in the MCT-induced PAH rat model.

[4] = system: primary rat pulmonary arterial smooth muscle cells (PASMCs); test: PASMC proliferation with macrophage supernatant (EdU assay, western blot); type: cell-based; settings: 24 h, n = 3 per group
Experimental: PASMCs were isolated from rat distal pulmonary arteries and then cultured in Dulbecco’s modified Eagle’s medium (DMEM) containing 20% fetal bovine serum as previously described.
Cells seeded in the 24-well plate were labeled with 10 μmol/L of EdU (Meilun, Dalian, China) for 2 h at 37 ℃. Subsequently, cells were fixed in 4% of paraformaldehyde for 20 min and incubated in phosphate-buffered saline (PBS) containing 0.5% of Triton- X100 for 15 min. After being washed three times with PBS, 150 μL of dying solution was applied per well for 30 min and nuclei staining with Hoechst 33,342 for 10 min away from light. The proliferating cells were labeled with green fluorescence, with a maximum excitation wavelength of 491 nm and a maximum emission wavelength of 518 nm for 488-Azide. The proliferative rate = EdU-positive cells/Hoechst-positive cells.
as §1, with “After pretreatment with 100 ng/ml of IL-1RA for 1 h, we added the supernatants from the control or C3a group to PASMCs respectively for 24 h.” left out

NC(N)=NCCC[C@H](NC(=O)COCC(c1ccccc1)c1ccccc1)C(=O)O.O=C(O)C(F)(F)F [C3aRa, SB290157 trifluoroacetate, reference compound]
cellular levels of NLRP3, cleaved-caspase-1, cleaved-IL1β and IL18 ([1]; RAW264.7 treated with C3a (50 nM), 1 mM C3aRa): reduced

C[C@H]1C(=O)O[C@@H]2CCN3CC=C(COC(=O)[C@](C)(O)[C@]1(C)O)[C@H]23 [MCT, Monocrotaline, reference compound]
RVSP after 4 weeks of MCT treatment [2]: 63.03 ± 4.19 mmHg

CC[C@H](C)[C@H](N)C(=O)N[C@H]1CSSC[C@@H](C(=O)N[C@H](C(N)=O)[C@@H](C)O)NC(=O)[C@H](CCCNC(=N)N)NC(=O)[C@H](Cc2c[nH]cn2)NC(=O)[C@H](Cc2c[nH]cn2)NC(=O)CNC(=O)[C@H](Cc2c[nH]c3ccccc23)NC(=O)[C@H](CC(=O)O)NC(=O)[C@H](CCC(N)=O)NC(=O)[C@H](C(C)C)NC(=O)[C@H](C(C)C)NC1=O [compstatin]
species specificity of C3 binding [3]: can bind only primates but not rodent C3

C3a: complement anaphylatoxin C3a protein used at 50 nM to stimulate macrophages
cleaved-IL1β production by macrophages ([1]; RAW264.7, C3a 50 nM): stimulated macrophages to produce cleaved-IL1β

IL-1RA: IL-1RA protein reagent (MedChemExpress HY-P72566), 100 ng/ml pretreatment of PASMCs
PCNA and Cyclin D1 expression in PASMCs ([4]; C3a-supernatant + IL-1RA vs C3a-supernatant + PBS, western blot): decreased
number of EdU-positive PASMCs increased by macrophage-conditioned media ([4]; C3a-supernatant, 100 ng/ml IL-1RA pretreatment 1 h): reversed
